# Entries after “also recorded” stand apart in the source; their conditions may differ. Counter-ions that a name gives are not always drawn.
# Assays:
# Rock2 = Rock2 (Homo sapiens, UniProt O75116); details: cited from earlier work
# Rock1 = Rock1 (Homo sapiens, UniProt Q13464); details: cited from earlier work
# [1] = test system: Fabry disease vascular endothelial cells; assay: Tube formation experiment with ROCK inhibitors; assay type: cell-based, human; details: 5 µM
# Method: [Table 1] ROCK inhibitors used in the first experiment
# Second experiment: To confirm whether decreased tube formation in vascular endothelial cells derived from Fabry disease-induced pluripotent stem cells was rescued by treatment with 7 types of ROCK inhibitors (netarsudil, ripasudil, sovesudil, AT13148, AR13503, VX-210, and […]), a tube formation experiment was conducted (Table 2). [Table 2] Types of ROCK inhibitors used in the second experiment
# Matrigel was applied to a 96-well plate which was then stored in a 5% CO2 incubator a 37°C for one day. The next day, each ROCK inhibitor was added to each well at various concentrations (5 µM, 1 µM, 0.5 µM, 0.1 µM, 0.05 µM, and 0.01 µM) together with […] VEGF in EGM-2 media.
# 10,000 vascular endothelial cells per well were applied onto the solidified Matrigel, and after one day, each well was photographed under a microscope. Then, the total tube length was analyzed using Image J to compare the increase and decrease in tube formation.
# FD-VECs [2] = assay: Tube-like structure formation assay of FD-VECs; assay type: cell-based, human; details: for tube formation ability: 0.5, 1, and 5 µM, versus DMSO control; for optimal concentration: based on tube formation of FD-VECs; for tube formation ability of VECs derived from FD-iPSC lines with distinct GLA mutations: fasudil at 5 µM
# Method: FD-iPSC lines that were generated from fibroblasts of three FD patients with a GLA variant were used. A wild-type (WT) iPSC line derived from foreskin fibroblasts and a FD1 isogenic iPSC line were used as controls. Human iPSCs (hiPSCs) were maintained in mTeSR1 medium ([…] Technologies, Vancouver, Canada) on culture plates precoated with Corning Matrigel® hESC-Qualified Matrix. The cells were maintained at 37°C in a 5% CO2 incubator. After 7 days of culture, hiPSC colonies were split at a 1:50 ratio using accutase solution (eBioscience, San Diego, CA, USA) and incubated under the same culture conditions for expansion.
# Human iPSCs were differentiated into VECs as described previously, with further optimization. Briefly, hiPSCs were transferred to dishes coated with Matrigel® (BD Biosciences, Franklin Lakes, NJ, USA) and cultured for 2 days in mTESR1 medium ([…] Technologies) at 37°C and 5% CO2. Subsequently, the cells were cultured for a further 2 days in VEC medium (RPMI (HyClone, Logan, MI, USA), 1% B27 (Invitrogen, Carlsbad, CA, USA), and penicillin/streptomycin (Invitrogen)) supplemented with 50 ng/mL Activin A (PeproTech, Rocky Hill, NJ, USA) and 20 ng/mL BMP4 (PeproTech), and 3 µM CHIR990921 (Sigma, St. Louis, MO) at 37°C and 5% CO2. Next, the cells were cultured for 3 days in VEC medium containing 50 ng/mL VEGF-A (PeproTech) and 50 ng/mL bFGF, at 37°C and 5% CO2. To differentiate the vascular progenitors into VECs, CD31^+ cells were sorted from the differentiated cells by MACS using CD31^+ Dynabeads (Thermo Fisher Scientific, Waltham, MA, USA). The CD31^+ cells were transferred to gelatin-coated plates and incubated for 3 days in EGM-2 medium (Lonza, Basel, Switzerland) supplemented with 100 ng/mL VEGF-A and 50 ng/mL bFGF, at 37°C and 5% CO2. The culture medium was changed daily. Finally, the vascular progenitors were cultured in EGM-2 medium without growth factors for 4 days with daily medium change.
# To screen for clinical compounds that could rescue FD-VEC dysfunction, VECs were seeded onto gelatin-coated 96-well plates (SPL Life Sciences, Pocheon, Korea) at a density of 3 × 10^3 cells/cm^2 and maintained in EGM-2 medium without growth factors for 24 hours. […] Subsequently, it was examined whether FD-VECs treated with each selected compound could form tube-like structures on Matrigel®-coated plates. The tube-like structure forming assay was repeated at least three times using different concentrations of each selected compound (0.5, 1, and 5 µM).
# FD-VECs were dissociated after treatment with Accutase (eBioscience) at 37°C for 5 min. Dissociated cells (1 × 10^4) were transferred to Matrigel® matrix (BD Biosciences) in EGM-2 medium supplemented with 100 ng/mL VEGF-A, and then incubated at 37°C and 5% CO2 for 24 hours. Images of the vascular tube-like structures were taken using an inverted microscope (Olympus, Tokyo, Japan). Total tube lengths were measured using ImageJ software, which was freely provided by the […], and its Angiogenesis Analyzer plugin (Carpentier, 2012).
# [3] = test system: p-SMAD2, SMAD2, TSP1, KDR, eNOS; assay: Western blot analysis of p-SMAD2, TSP1, KDR and eNOS in FD-VECs; assay type: cell-based, human; details: compared to non-treated FD-VECs
# [4] = test system: FD mice (Gla^-/-/TSP1^Tg); assay: Echocardiography of FD mice after oral administration; assay type: in vivo; details: 10 or 30 mg/kg/day for 6 months
# Excerpt: Therefore, the present inventors hypothesized that Gla^-/- mice expressing human TSP1 (Gla^-/-/TSP1^Tg; hereinafter referred to as FD mice) might be an effective animal model for studying FD-related vasculopathy. […] LVH is known to occur in up to half of males and one-third of females in FD patients (Kampmann C, Linhart A, Baehner F, Palecek T, Wiethoff CM, Miebach E, Whybra C, Gal A, Bultas J, Beck M (2008) Onset and progression of the Anderson-Fabry disease related cardiomyopathy. International Journal of Cardiology 130: 367-73). Thus, the present inventors investigated the cardiac functionality in each mouse group via echocardiography.
# To this end, FD-mice (Gla^-/-/TSP1^Tg) were produced by crossing transgenic mice expressing human TSP1 with Gla^-/- mice. The produced mice were then orally administered lomerizine (10 or 30 mg/kg/day) for 6 months (FIG. 18A).
# [5] = test system: Fabry disease mice (Gla^-/-); assay: Sweat secretion of Gla^-/- mice after co-administration; assay type: in vivo; details: fasudil 30 mg/kg daily oral; enzyme 1 mg/kg i.v. once a week; 6 months
# EndMT of FD-VECs = assay: EndMT-associated factors in FD-VECs (Western blot, immunostaining); assay type: cell-based, human; details: for levels of mesenchymal-related markers (COL1A1, ACTA2, SNAI1, and TWIST) / protein level of CD31: Western blot; for fluorescence intensities of EndMT-related factors (ACTA2, SNAI1, COL1A1): immunostaining
# Excerpt: Hyperactive SMAD2 signaling induces EndMT in VECs, thereby reducing angiogenic functionality. […] Before drug treatment, the present inventors performed bulk RNA sequencing of FD-VECs and FD(c)-VECs to examine the mechanism underlying the defective vasculopathy of FD-VECs.
# [6] = test system: Fabry disease mice (Gla^-/-); assay: Hot plate test (55°C) of Gla^-/- mice after co-administration; assay type: in vivo; details: hot plate 55°C; fasudil 30 mg/kg daily oral; enzyme 1 mg/kg i.v. once a week; 6 months
# Method: Many Fabry disease patients suffer from peripheral neuropathic pain, and one way to indirectly assess the pain in laboratory animals is to measure the time it takes for the hind limbs to jump on a hot plate at 55°C.
# FD-VECs [7] = assay: ROS fluorescence intensity in FD-VECs; assay type: cell-based, human
# [8] = test system: Fabry disease mice (Gla^-/-); assay: Kidney tissue analysis of Gla^-/- mice after co-administration; assay type: in vivo; details: fasudil 30 mg/kg daily oral; enzyme 1 mg/kg i.v. once a week; 6 months
# [9] = test system: FD mice (Gla^-/-/TSP1^Tg); assay: Immunohistochemistry and Western blot of renal tissues of FD mice; assay type: in vivo; details: oral administration; for protein levels of fibrotic and inflammatory markers in renal tissues: Western blot; for CD31+ACTA2+ cells in renal tissues / expression levels of F4/80 and LCN2 in renal tissues / expression of COL1A1 in renal tissues: immunohistochemistry
# [10] = test system: FD mice (Gla^-/-/TSP1^Tg); assay: Heat tolerance test (paw withdrawal latency) in FD mice; assay type: in vivo; details: oral, 10 or 30 mg/kg/day for 6 months
# FD-VECs [11] = assay: Extracellular flux analysis of oxygen consumption rate (OCR); assay type: cell-based, human
# [12] = test system: FD mice (Gla^-/-/TSP1^Tg); assay: Sweat secretion analysis in FD mice; assay type: in vivo; details: oral, 10 or 30 mg/kg/day for 6 months
# [13] = test system: Fabry disease mice (Gla^-/-); assay: Echocardiography of Gla^-/- mice after co-administration; assay type: in vivo; details: fasudil 30 mg/kg daily oral; enzyme 1 mg/kg i.v. once a week; 6 months
# Sequence of Rock2 (O75116 whole entry, species assumed): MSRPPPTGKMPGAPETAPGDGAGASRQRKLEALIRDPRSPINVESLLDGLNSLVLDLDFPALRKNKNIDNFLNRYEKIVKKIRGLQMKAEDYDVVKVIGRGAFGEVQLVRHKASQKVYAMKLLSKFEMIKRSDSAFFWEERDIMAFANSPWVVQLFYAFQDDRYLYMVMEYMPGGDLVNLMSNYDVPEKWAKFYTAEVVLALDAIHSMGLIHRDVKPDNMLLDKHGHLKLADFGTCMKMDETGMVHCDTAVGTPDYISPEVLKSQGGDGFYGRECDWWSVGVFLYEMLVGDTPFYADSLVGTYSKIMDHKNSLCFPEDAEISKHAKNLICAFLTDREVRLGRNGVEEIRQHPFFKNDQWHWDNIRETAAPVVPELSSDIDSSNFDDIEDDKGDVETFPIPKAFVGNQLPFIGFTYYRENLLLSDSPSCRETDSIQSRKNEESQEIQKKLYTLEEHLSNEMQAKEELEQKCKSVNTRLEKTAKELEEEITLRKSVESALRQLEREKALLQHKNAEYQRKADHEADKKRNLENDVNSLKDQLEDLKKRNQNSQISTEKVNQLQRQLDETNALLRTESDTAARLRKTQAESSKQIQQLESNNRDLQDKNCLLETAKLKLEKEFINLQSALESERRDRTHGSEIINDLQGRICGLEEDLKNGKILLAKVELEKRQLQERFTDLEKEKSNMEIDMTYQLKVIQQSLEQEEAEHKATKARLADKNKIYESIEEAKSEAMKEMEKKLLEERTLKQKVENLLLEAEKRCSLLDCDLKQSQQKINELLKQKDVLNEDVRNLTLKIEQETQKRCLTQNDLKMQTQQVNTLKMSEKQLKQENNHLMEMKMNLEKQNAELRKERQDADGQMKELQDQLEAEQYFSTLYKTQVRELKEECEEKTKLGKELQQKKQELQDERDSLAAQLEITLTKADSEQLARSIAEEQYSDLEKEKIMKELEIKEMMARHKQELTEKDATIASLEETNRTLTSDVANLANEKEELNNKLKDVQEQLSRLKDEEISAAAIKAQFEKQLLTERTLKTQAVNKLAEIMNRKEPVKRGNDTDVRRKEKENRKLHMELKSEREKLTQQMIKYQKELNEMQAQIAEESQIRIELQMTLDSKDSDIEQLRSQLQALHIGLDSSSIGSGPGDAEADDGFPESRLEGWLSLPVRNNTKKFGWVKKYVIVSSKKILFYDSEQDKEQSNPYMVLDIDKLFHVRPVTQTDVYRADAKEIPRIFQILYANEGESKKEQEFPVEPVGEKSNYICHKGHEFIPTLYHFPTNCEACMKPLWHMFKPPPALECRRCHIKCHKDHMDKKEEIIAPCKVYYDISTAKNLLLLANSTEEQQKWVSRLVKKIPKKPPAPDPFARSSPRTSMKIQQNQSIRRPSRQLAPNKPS
# Sequence of Rock1 (Q13464 whole entry, species assumed): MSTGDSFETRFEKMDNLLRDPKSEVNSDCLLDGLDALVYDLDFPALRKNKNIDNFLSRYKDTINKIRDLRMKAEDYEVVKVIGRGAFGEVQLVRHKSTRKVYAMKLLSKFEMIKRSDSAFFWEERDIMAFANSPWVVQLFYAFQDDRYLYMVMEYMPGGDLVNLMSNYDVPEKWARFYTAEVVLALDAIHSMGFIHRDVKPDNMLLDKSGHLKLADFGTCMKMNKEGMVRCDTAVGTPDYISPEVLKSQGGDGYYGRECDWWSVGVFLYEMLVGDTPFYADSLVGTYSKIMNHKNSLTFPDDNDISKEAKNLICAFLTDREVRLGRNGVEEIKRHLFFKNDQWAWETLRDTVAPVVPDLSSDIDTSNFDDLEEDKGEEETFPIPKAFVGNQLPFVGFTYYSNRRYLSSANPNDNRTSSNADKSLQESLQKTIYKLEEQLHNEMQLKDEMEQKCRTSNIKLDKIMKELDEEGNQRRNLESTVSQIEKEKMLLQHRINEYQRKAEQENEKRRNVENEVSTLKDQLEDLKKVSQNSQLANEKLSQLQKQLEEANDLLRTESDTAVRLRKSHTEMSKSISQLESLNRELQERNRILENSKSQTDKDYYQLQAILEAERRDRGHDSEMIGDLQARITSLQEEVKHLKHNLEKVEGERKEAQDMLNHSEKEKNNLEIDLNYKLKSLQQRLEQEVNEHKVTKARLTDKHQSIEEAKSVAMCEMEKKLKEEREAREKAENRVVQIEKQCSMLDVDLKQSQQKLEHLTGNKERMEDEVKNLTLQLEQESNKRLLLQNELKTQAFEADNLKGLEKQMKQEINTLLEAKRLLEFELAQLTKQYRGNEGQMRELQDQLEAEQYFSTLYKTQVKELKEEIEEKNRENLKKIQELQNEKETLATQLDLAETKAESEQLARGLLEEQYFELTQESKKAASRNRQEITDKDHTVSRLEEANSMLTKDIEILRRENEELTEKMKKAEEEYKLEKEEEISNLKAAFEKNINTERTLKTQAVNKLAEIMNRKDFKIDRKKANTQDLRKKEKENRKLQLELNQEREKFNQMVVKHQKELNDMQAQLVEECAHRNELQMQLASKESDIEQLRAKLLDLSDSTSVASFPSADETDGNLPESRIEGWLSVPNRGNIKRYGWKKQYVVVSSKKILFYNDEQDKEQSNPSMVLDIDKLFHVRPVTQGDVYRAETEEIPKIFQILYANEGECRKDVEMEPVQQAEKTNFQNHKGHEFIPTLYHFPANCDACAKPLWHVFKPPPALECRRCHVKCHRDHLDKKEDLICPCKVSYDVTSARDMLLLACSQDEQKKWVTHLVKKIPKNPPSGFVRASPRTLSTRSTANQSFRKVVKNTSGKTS
compound,measurement,setting,value
"CCCOC(=O)c1cccc(-c2cc(C(=O)Nc3ccncc3F)ccc2CN)c1 [AMA-0076, Sovesudil]",IC50,Rock2,23 nM
same,IC50,Rock1,3.7 nM
same,tube formation ability of Fabry disease vascular endothelial cells,[1],increased the tube formation ability
NC[C@@H](C(=O)Nc1ccc2cnccc2c1)c1ccc(CO)cc1 [AR-13503],IC50,Rock2,4.2 nM
same,tube formation ability of Fabry disease vascular endothelial cells,[1],increased the tube formation ability
NC[C@@](O)(c1ccc(Cl)cc1)c1ccc(-c2cn[nH]c2)cc1 [AT-13148],IC50,Rock2,4 nM
same,IC50,Rock1,6 nM
same,tube formation ability of Fabry disease vascular endothelial cells,[1],increased the tube formation ability
NC(=O)c1ccc(-c2nc(-c3ccc4c(c3)OCCO4)c(-c3ccccn3)[nH]2)cc1 [D-4476],tube formation ability,FD-VECs [2],relatively higher tube formation ability
CC1=C(C(=O)Nc2cc3cn[nH]c3cc2F)C(c2ccc(C(F)(F)F)cc2)CC(=O)N1 (centres unmarked) [GSK429286A],tube formation ability of Fabry disease vascular endothelial cells,[1],effective in improving the impaired tube formation ability
C[C@H]1CNCCCN1S(=O)(=O)c1cccc2cncc(F)c12 [Ripasudil hydrochloride hydrate],tube formation ability of Fabry disease vascular endothelial cells,[1],increased the tube formation ability
NC(=O)c1ccc(-c2nc(-c3ccc4c(c3)OCO4)c(-c3ccccn3)[nH]2)cc1 [SB431542],tube formation ability of Fabry disease vascular endothelial cells,[1],increased tube formation ability
O=C(Nc1ccncc1)c1cc([N+](=O)[O-])ccc1Cl [T0070907],tube formation ability,FD-VECs [2],relatively higher tube formation ability
C[C@@H](N)[C@H]1CC[C@H](C(=O)Nc2ccncc2)CC1 [Y27632],tube formation ability of Fabry disease vascular endothelial cells,[1],effective in improving the impaired tube formation ability
C[C@@H](N)c1ccc(C(=O)Nc2ccnc3[nH]ccc23)cc1 [Y39983],tube formation ability of Fabry disease vascular endothelial cells,[1],effective in improving the impaired tube formation ability
CCOC(CN1CCN(CC(C)C(=O)c2ccccc2)CC1)c1ccccc1 (centres unmarked) [eprazinone],tube formation ability,FD-VECs [2],relatively higher tube formation ability
O=S(=O)(c1cccc2cnccc12)N1CCCNCC1 [fasudil],levels of KDR and eNOS,[3],increased
same,levels of p-SMAD2 and TSP1,[3],reduced
same,LV mass/BW,[4],significantly reduced
same,"cardiac ejection fraction, fractional shortening, and cardiac output",[4],enhanced
same,sweating,[5],reduced
same,"levels of mesenchymal-related markers (COL1A1, ACTA2, SNAI1, and TWIST)",EndMT of FD-VECs,reduced
same,protein level of CD31,EndMT of FD-VECs,increased
same,"fluorescence intensities of EndMT-related factors (ACTA2, SNAI1, COL1A1)",EndMT of FD-VECs,reduced
same,latency (time for hind limbs to jump on hot plate),[6],slight decrease in latency
same,tube length of FD-VECs,"FD-VECs [2]; 5 µM, compared to the untreated group",significantly increased
same,tube formation ability,FD-VECs [2],relatively higher tube formation ability; also recorded: most effective
same,optimal concentration,FD-VECs [2],5 µM
same,tube formation ability of VECs derived from FD-iPSC lines with distinct GLA mutations,FD-VECs [2],enhanced
same,level of ROS,FD-VECs [7],reduced the level of ROS to that seen in WT-VECs and FD(c)-VECs
same,expression of fibrosis-related marker (COL1A1) and inflammation markers (LCN2 and F4/80) in kidney tissues,[8],reduced
same,protein levels of fibrotic and inflammatory markers in renal tissues,[9],confirmed by Western blot analysis
same,CD31+ACTA2+ cells in renal tissues,[9],reduced
same,expression levels of F4/80 and LCN2 in renal tissues,[9],reduced
same,expression of COL1A1 in renal tissues,[9],downregulated
same,heat insensitivity (paw withdrawal latency),[10],significantly alleviated
same,"basal respiration, ATP production, or spare capacity",FD-VECs [11],did not alter
same,maximal respiration,FD-VECs [11],partially reduced
same,anhidrosis (number of sweat spots),[12],significantly alleviated
same,cardiac function,[13],improvement in cardiac function
same,left ventricular hypertrophy,[13],significant reduction
COc1ccc(CN2CCN(C(c3ccc(F)cc3)c3ccc(F)cc3)CC2)c(OC)c1OC [lomerizine],levels of KDR and eNOS,[3],increased
same,levels of p-SMAD2 and TSP1,[3],reduced
same,LV mass/BW,[4],reduced
same,"cardiac ejection fraction, fractional shortening, and cardiac output",[4],significant improvements
same,"levels of mesenchymal-related markers (COL1A1, ACTA2, SNAI1, and TWIST)",EndMT of FD-VECs,reduced
same,protein level of CD31,EndMT of FD-VECs,increased
same,"fluorescence intensities of EndMT-related factors (ACTA2, SNAI1, COL1A1)",EndMT of FD-VECs,reduced
same,tube formation ability,FD-VECs [2],relatively higher tube formation ability
same,optimal concentration,FD-VECs [2],1 µM
same,tube formation ability of VECs derived from FD-iPSC lines with distinct GLA mutations,FD-VECs [2],enhanced
same,total tube length of FD-VECs,"FD-VECs [2]; tube formation assay, versus untreated FD-VECs",significantly increased
same,level of ROS,FD-VECs [7],reduced the excess ROS produced in FD-VECs to the same level as that in WT- and FD(c)-VECs
same,protein levels of fibrotic and inflammatory markers in renal tissues,[9],reduced
same,CD31+ACTA2+ cells in renal tissues,[9],reduced this increase
same,expression levels of F4/80 and LCN2 in renal tissues,[9],reduced
same,expression of COL1A1 in renal tissues,[9],downregulated
same,heat insensitivity (paw withdrawal latency),[10],rescued this phenotype
same,maximal respiration,FD-VECs [11],slight decrease
same,anhidrosis (number of sweat spots),[12],rescued this phenotype
Cc1c(Cl)cccc1Nc1ccccc1C(=O)O [tolfenamic acid],tube formation ability,FD-VECs [2],relatively higher tube formation ability
Netarsudil mesylate,tube formation ability of Fabry disease vascular endothelial cells,[1],increased the tube formation ability

# From patent EP4631504A1, “COMPOSITION FOR PREVENTION OR TREATMENT OF FABRY'S DISEASE” (Korea Advanced Institute of Science and Technology, priority 2022, dated 2024)
